{"source": "PubChem BioAssay AID1259407", "about": "(Chemical Carcinogenesis Research Information System (CCRIS), 2018)", "test_system": "CCRIS mutagenicity, Ames/micronucleus/aberration tests", "assay": "CCRIS mutagenicity studies", "key": {"[1]": {"settings": "Test System: AMES SALMONELLA TYPHIMURIUM, Strain/Indicator: TA98, Metabolic Activation: NONE, Method: STANDARD PLATE"}, "[2]": {"settings": "Test System: AMES SALMONELLA TYPHIMURIUM, Strain/Indicator: TA1537, Metabolic Activation: NONE, Method: STANDARD PLATE"}}, "note": "The source made the active and inactive calls. No rule for the calls is given here."}
{"compound": "CC(=O)Nc1ccc(N=Nc2cc(C)ccc2O)cc1", "values": [{"measurement": "mutagenic call", "setting": "End Point: IN VITRO CHROMOSOMAL ABERRATIONS, Test System: CHO CELLS, Metabolic Activation: NONE", "result": "inactive; negative"}, {"measurement": "mutagenic call", "setting": "End Point: IN VITRO CHROMOSOMAL ABERRATIONS, Test System: CHO CELLS, Metabolic Activation: RAT, LIVER, S-9, AROCLOR 1254", "result": "inactive; negative"}, {"measurement": "mutagenic call", "setting": "Test System: AMES SALMONELLA TYPHIMURIUM, Strain/Indicator: TA97, Metabolic Activation: HAMSTER, LIVER, S-9, AROCLOR 1254 (10%), Method: PREINCUBATION", "result": "active; positive"}, {"measurement": "mutagenic call", "setting": "Test System: AMES SALMONELLA TYPHIMURIUM, Strain/Indicator: TA97, Metabolic Activation: NONE, Method: PREINCUBATION", "result": "active; positive"}, {"measurement": "mutagenic call", "setting": "Test System: AMES SALMONELLA TYPHIMURIUM, Strain/Indicator: TA97, Metabolic Activation: RAT, LIVER, S-9, AROCLOR 1254 (10%), Method: PREINCUBATION", "result": "active; positive"}, {"measurement": "mutagenic call", "setting": "Test System: AMES SALMONELLA TYPHIMURIUM, Strain/Indicator: TA98, Metabolic Activation: HAMSTER, LIVER, S-9, AROCLOR 1254 (5, 10, 20%), Method: PREINCUBATION", "result": "active; positive"}, {"measurement": "mutagenic call", "setting": "Test System: AMES SALMONELLA TYPHIMURIUM, Strain/Indicator: TA98, Metabolic Activation: HAMSTER, LIVER, S-9, AROCLOR 1254 (10%), Method: PREINCUBATION", "result": "active; positive"}, {"measurement": "mutagenic call", "setting": "Test System: AMES SALMONELLA TYPHIMURIUM, Strain/Indicator: TA98, Metabolic Activation: HAMSTER, LIVER, S-9, AROCLOR 1254, Method: STANDARD PLATE", "result": "active; positive"}, {"measurement": "mutagenic call", "setting": "Test System: AMES SALMONELLA TYPHIMURIUM, Strain/Indicator: TA98, Metabolic Activation: HAMSTER, LIVER, S-9, Method: PREINCUBATION (PRIVAL METHOD)", "result": "active; positive"}, {"measurement": "mutagenic call", "setting": "Test System: AMES SALMONELLA TYPHIMURIUM, Strain/Indicator: TA98, Metabolic Activation: NONE, Method: PREINCUBATION", "result": "active; positive"}, {"measurement": "mutagenic call", "setting": "[1]", "result": "active; positive"}, {"measurement": "mutagenic call", "setting": "Test System: AMES SALMONELLA TYPHIMURIUM, Strain/Indicator: TA98, Metabolic Activation: RAT, LIVER, S-9, AROCLOR 1254 (10%), Method: PREINCUBATION", "result": "active; positive"}, {"measurement": "mutagenic call", "setting": "Test System: AMES SALMONELLA TYPHIMURIUM, Strain/Indicator: TA98, Metabolic Activation: RAT, LIVER, S-9, AROCLOR 1254, HAMSTER, LIVER, S-9, AROCLOR 1254, Method: STANDARD PLATE", "result": "active; positive"}, {"measurement": "mutagenic call", "setting": "Test System: AMES SALMONELLA TYPHIMURIUM, Strain/Indicator: TA100, Metabolic Activation: HAMSTER, LIVER, S-9, AROCLOR 1254 (10%), Method: PREINCUBATION", "result": "active; positive"}, {"measurement": "mutagenic call", "setting": "Test System: AMES SALMONELLA TYPHIMURIUM, Strain/Indicator: TA100, Metabolic Activation: HAMSTER, LIVER, S-9, AROCLOR 1254, Method: STANDARD PLATE", "result": "active; positive"}, {"measurement": "mutagenic call", "setting": "Test System: AMES SALMONELLA TYPHIMURIUM, Strain/Indicator: TA100, Metabolic Activation: HAMSTER, LIVER, S-9, Method: PREINCUBATION (PRIVAL METHOD)", "result": "active; positive"}, {"measurement": "mutagenic call", "setting": "Test System: AMES SALMONELLA TYPHIMURIUM, Strain/Indicator: TA100, Metabolic Activation: NONE, Method: PREINCUBATION", "result": "active; positive"}, {"measurement": "mutagenic call", "setting": "Test System: AMES SALMONELLA TYPHIMURIUM, Strain/Indicator: TA100, Metabolic Activation: RAT, LIVER, S-9, AROCLOR 1254 (10%), Method: PREINCUBATION", "result": "active; positive"}, {"measurement": "mutagenic call", "setting": "Test System: AMES SALMONELLA TYPHIMURIUM, Strain/Indicator: TA1535, Metabolic Activation: HAMSTER, LIVER, S-9, AROCLOR 1254 (10%), Method: PREINCUBATION", "result": "inactive; negative"}, {"measurement": "mutagenic call", "setting": "Test System: AMES SALMONELLA TYPHIMURIUM, Strain/Indicator: TA1535, Metabolic Activation: NONE, Method: PREINCUBATION", "result": "inactive; negative"}, {"measurement": "mutagenic call", "setting": "Test System: AMES SALMONELLA TYPHIMURIUM, Strain/Indicator: TA1535, Metabolic Activation: RAT, LIVER, S-9, AROCLOR 1254 (10%), Method: PREINCUBATION", "result": "inactive; negative"}, {"measurement": "mutagenic call", "setting": "[2]", "result": "active; positive"}, {"measurement": "mutagenic call", "setting": "Test System: AMES SALMONELLA TYPHIMURIUM, Strain/Indicator: TA1537, Metabolic Activation: RAT, LIVER, S-9, AROCLOR 1254, HAMSTER, LIVER, S-9, AROCLOR 1254, Method: STANDARD PLATE", "result": "active; positive"}, {"measurement": "mutagenic call", "setting": "Test System: AMES SALMONELLA TYPHIMURIUM, Strain/Indicator: TA1538, Metabolic Activation: NONE, Method: STANDARD PLATE", "result": "active; positive"}, {"measurement": "mutagenic call", "setting": "Test System: AMES SALMONELLA TYPHIMURIUM, Strain/Indicator: TA1538, Metabolic Activation: RAT, LIVER, S-9, AROCLOR 1254, HAMSTER, LIVER, S-9, AROCLOR 1254, Method: STANDARD PLATE", "result": "active; positive"}, {"measurement": "mutagenic call", "setting": "Test System: Mouse lymphoma, Strain/Indicator: L5178Y (tk+/tk-), Metabolic Activation: None, Method: Suspension/Plate", "result": "inactive; negative"}, {"measurement": "mutagenic call", "setting": "Test System: Mouse lymphoma, Strain/Indicator: L5178Y (tk+/tk-), Metabolic Activation: Rat, Liver, S-9, Aroclor 1254, Method: Suspension/Plate", "result": "inactive; inconclusive (previous evaluation negative)"}]}
{"compound": "CNCCCN1c2ccccc2CCc2ccccc21", "values": [{"measurement": "mutagenic call", "setting": "[1]", "result": "inactive; negative"}, {"measurement": "mutagenic call", "setting": "Test System: AMES SALMONELLA TYPHIMURIUM, Strain/Indicator: TA98, Metabolic Activation: RAT, LIVER, S-9, AROCLOR 1254, Method: STANDARD PLATE", "result": "inactive; negative"}, {"measurement": "mutagenic call", "setting": "Test System: AMES SALMONELLA TYPHIMURIUM, Strain/Indicator: TA100, Metabolic Activation: NONE, Method: STANDARD PLATE", "result": "inactive; negative"}, {"measurement": "mutagenic call", "setting": "Test System: AMES SALMONELLA TYPHIMURIUM, Strain/Indicator: TA100, Metabolic Activation: RAT, LIVER, S-9, AROCLOR 1254, Method: STANDARD PLATE", "result": "inactive; negative"}, {"measurement": "mutagenic call", "setting": "Test System: AMES SALMONELLA TYPHIMURIUM, Strain/Indicator: TA1535, Metabolic Activation: NONE, Method: STANDARD PLATE", "result": "inactive; negative"}, {"measurement": "mutagenic call", "setting": "Test System: AMES SALMONELLA TYPHIMURIUM, Strain/Indicator: TA1535, Metabolic Activation: RAT, LIVER, S-9, AROCLOR 1254, Method: STANDARD PLATE", "result": "inactive; negative"}, {"measurement": "mutagenic call", "setting": "[2]", "result": "inactive; negative"}, {"measurement": "mutagenic call", "setting": "Test System: AMES SALMONELLA TYPHIMURIUM, Strain/Indicator: TA1537, Metabolic Activation: RAT, LIVER, S-9, AROCLOR 1254, Method: STANDARD PLATE", "result": "inactive; negative"}]}
{"compound": "CN1CC[C@H](c2c(O)cc(O)c3c(=O)cc(-c4ccccc4Cl)oc23)[C@H](O)C1", "values": [{"measurement": "mutagenic call", "setting": "Test System: Mouse lymphoma, Strain/Indicator: L5178Y (tk+/tk-), Metabolic Activation: None, Method: Suspension/plate", "result": "inactive; negative"}, {"measurement": "mutagenic call", "setting": "Test System: Mouse lymphoma, Strain/Indicator: L5178Y (tk+/tk-), Metabolic Activation: Rat, Liver, S-9, Aroclor 1254, Method: Suspension/plate", "result": "active; inconclusive (previous evaluation positive)"}]}
